Data taken from article PMC10313671, “Accelerating the prediction and discovery of peptide hydrogels with human-in-the-loop” (Nature Communications, 2023).
Where a SMILES comes first, the peptide text is derived from it.

What was measured:
[1] = Peptide hydrogel formation, vial-inverting method; format: physicochemical; design: key to EXP / GELATION: 0: no hydrogel; 1: hydrogel; conditions: for State: ultrasonication, standing 48 h; for State / GELATION / hydrogel formation (in words): vial-inverting method; for Concentration: concentration at which the state was recorded: lowest of 30, 60, 90, 120 mM that gave a gel, 120 mM for non-gelating peptides; for GELATION: 1 = hydrogel, 0 = no hydrogel; for hydrogel formation (in words): representative hydrogels pH between 7.0 to 7.5; for EXP: experimental gelation result of the synthesized peptide
How it was run: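 Tetrapeptides dissolved in ultrapure water at 30 mM, pH brought to 6.5–8.5 with 1 N NaOH stepwise with brief ultrasonication, then left 48 h. Gel defined as self-supporting and non-flowing on vial inversion; non-gelling peptides retested at 60, 90 and 120 mM.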

[2] = Transmission electron microscope (negative staining) of peptide assemblies; conditions: for Morphology: TEM, negative staining with uranyl acetate, 120 kV; for morphology by TEM (in words): aqueous solution or hydrogel, negative staining
Procedure: We used the negative staining technique to observe the morphologies formed by peptides. A micropipette was used to load 10 μL of sample solution to a carbon-coated copper grid, and we used a piece of filter paper to remove the excess solution. After rinsing the grid with the deionized water, we used uranyl acetate to stain the sample for 1 minute and then rinsed the grid with deionized water again.

[3] = 30 mM peptide in ultrapure water, pH adjusted to 6.5-8.5 with 1 N NaOH, concentration raised 30/60/90/120 mM until gelation
[4] = 120 mM peptide (highest tested) in ultrapure water, pH 6.5-8.5 (1 N NaOH), precipitate, sol, suspension = no gel
[5] = 60 mM peptide in ultrapure water, pH 6.5-8.5 (1 N NaOH), no gel at 30 mM

C[C@H](NC(=O)[C@@H](N)Cc1c[nH]c2ccccc12)C(=O)N[C@@H](Cc1ccc(O)cc1)C(=O)N[C@@H](Cc1ccccc1)C(=O)O [WAYF] (H-WAYF-OH)
State [1, 3]: gel
Concentration [1]: 30000 µM
GELATION ([1]; peptide concentration 30 mM): 1
Morphology ([2]; line of the table gives 30 mM): fibre

CC(C)C[C@H](NC(=O)[C@@H](N)C(C)C)C(=O)N[C@H](C(=O)N[C@H](C(=O)O)C(C)C)C(C)C [VLVV] (H-VLVV-OH)
State [1, 4]: gel
Concentration [1]: 120000 µM
GELATION ([1]; peptide concentration 120 mM): 1
Morphology ([2]; line of the table gives 120 mM): sheet

N[C@@H](Cc1c[nH]c2ccccc12)C(=O)N[C@@H](Cc1c[nH]c2ccccc12)C(=O)N[C@@H](CS)C(=O)N1CCC[C@H]1C(=O)O [WWCP] (H-WWCP-OH)
State [1, 4]: precipitate
Concentration [1]: 120000 µM
GELATION ([1]; peptide concentration 120 mM): 0
hydrogel formation (in words) [1]: cannot
Morphology ([2]; line of the table gives 120 mM): aggregates

N[C@@H](CO)C(=O)N[C@@H](Cc1ccc(O)cc1)C(=O)N[C@@H](Cc1ccccc1)C(=O)N[C@@H](Cc1ccccc1)C(=O)O [SYFF] (H-SYFF-OH)
State [1, 3]: gel
Concentration [1]: 30000 µM
GELATION ([1]; peptide concentration 30 mM): 1
Morphology ([2]; line of the table gives 30 mM): fibre

CC(C)[C@H](NC(=O)[C@@H](N)Cc1c[nH]c2ccccc12)C(=O)N[C@@H](Cc1ccccc1)C(=O)N[C@@H](Cc1ccc(O)cc1)C(=O)O [WVFY] (H-WVFY-OH)
State [1, 3]: gel
Concentration [1]: 30000 µM
GELATION ([1]; peptide concentration 30 mM): 1
hydrogel formation (in words) [1]: hydrogels
Morphology ([2]; line of the table gives 30 mM): sheet
morphology by TEM (in words) [2]: interlaced nanosheets

CC(C)C[C@H](NC(=O)[C@H](CC(C)C)NC(=O)[C@@H](N)CC(C)C)C(=O)N[C@@H](Cc1ccccc1)C(=O)O [LLLF] (H-LLLF-OH)
State [1, 3]: gel
Concentration [1]: 30000 µM
GELATION ([1]; peptide concentration 30 mM): 1
Morphology ([2]; line of the table gives 30 mM): aggregates

CC(C)[C@H](N)C(=O)N[C@@H](C)C(=O)N[C@@H](Cc1ccccc1)C(=O)N[C@@H](Cc1ccc(O)cc1)C(=O)O [VAFY] (H-VAFY-OH)
State [1, 4]: gel
Concentration [1]: 120000 µM
GELATION ([1]; peptide concentration 120 mM): 1
Morphology ([2]; line of the table gives 120 mM): sphere

CC[C@H](C)[C@H](NC(=O)[C@H](Cc1ccc(O)cc1)NC(=O)[C@H](Cc1ccc(O)cc1)NC(=O)[C@@H]1CCCN1)C(=O)O [PYYI] (H-PYYI-OH)
State [1, 4]: sol
Concentration [1]: 120000 µM
GELATION ([1]; peptide concentration 120 mM): 0
Morphology ([2]; line of the table gives 120 mM): aggregates

NCCCC[C@H](NC(=O)[C@H](CCCCN)NC(=O)[C@H](CCC(=O)O)NC(=O)[C@@H](N)CCC(=O)O)C(=O)O [EEKK] (H-EEKK-OH)
State [1, 4]: sol
Concentration [1]: 120000 µM
GELATION ([1]; peptide concentration 120 mM): 0
Morphology ([2]; line of the table gives 120 mM): blank

CC(C)C[C@H](NC(=O)[C@H](Cc1ccccc1)NC(=O)[C@@H](N)CS)C(=O)N[C@@H](Cc1c[nH]c2ccccc12)C(=O)O [CFLW] (H-CFLW-OH)
State [1, 4]: suspension
Concentration [1]: 120000 µM
GELATION ([1]; peptide concentration 120 mM): 0
Morphology ([2]; line of the table gives 120 mM): aggregates

CC(C)[C@H](NC(=O)CN)C(=O)N[C@@H](Cc1ccccc1)C(=O)N[C@@H](Cc1ccc(O)cc1)C(=O)O [GVFY] (H-GVFY-OH)
State [1, 3]: gel
Concentration [1]: 30000 µM
GELATION ([1]; peptide concentration 30 mM): 1
Morphology ([2]; line of the table gives 30 mM): fibre

CSCC[C@H](NC(=O)[C@@H](N)CCC(N)=O)C(=O)N[C@H](C(=O)N[C@H](C(=O)O)C(C)C)C(C)C [QMVV] (H-QMVV-OH)
State [1, 4]: gel
Concentration [1]: 120000 µM
GELATION ([1]; peptide concentration 120 mM): 1
Morphology ([2]; line of the table gives 120 mM): aggregates

CC(C)C[C@H](NC(=O)[C@H](C)NC(=O)[C@@H](N)C(C)C)C(=O)N[C@H](C(=O)O)C(C)C [VALV] (H-VALV-OH)
State [1, 4]: sol
Concentration [1]: 120000 µM
EXP [1]: 0
GELATION ([1]; peptide concentration 120 mM): 0
Morphology ([2]; line of the table gives 120 mM): aggregates

N[C@@H](CS)C(=O)N[C@@H](Cc1c[nH]cn1)C(=O)N[C@@H](Cc1ccccc1)C(=O)N[C@@H](Cc1c[nH]c2ccccc12)C(=O)O [CHFW] (H-CHFW-OH)
State [1, 3]: gel
Concentration [1]: 30000 µM
GELATION ([1]; peptide concentration 30 mM): 1
Morphology ([2]; line of the table gives 30 mM): sphere

N[C@@H](CO)C(=O)N[C@@H](CO)C(=O)N[C@@H](CO)C(=O)N[C@@H](CO)C(=O)O [SSSS] (H-SSSS-OH)
State [1, 4]: suspension
Concentration [1]: 120000 µM
GELATION ([1]; peptide concentration 120 mM): 0
Morphology ([2]; line of the table gives 120 mM): blank

C[C@H](NC(=O)[C@@H](N)Cc1ccc(O)cc1)C(=O)N[C@@H](Cc1ccc(O)cc1)C(=O)N[C@@H](Cc1ccc(O)cc1)C(=O)O [YAYY] (H-YAYY-OH)
State [1, 4]: sol
Concentration [1]: 120000 µM
GELATION ([1]; peptide concentration 120 mM): 0
Morphology ([2]; line of the table gives 120 mM): aggregates

CC[C@H](C)[C@H](NC(=O)[C@@H](NC(=O)[C@@H](N)Cc1c[nH]c2ccccc12)[C@@H](C)CC)C(=O)N[C@@H](Cc1ccccc1)C(=O)O [WIIF] (H-WIIF-OH)
State [1, 3]: gel
Concentration [1]: 30000 µM
GELATION ([1]; peptide concentration 30 mM): 1
Morphology ([2]; line of the table gives 30 mM): fibre

N[C@@H](Cc1ccc(O)cc1)C(=O)N[C@@H](Cc1ccc(O)cc1)C(=O)N[C@@H](Cc1ccc(O)cc1)C(=O)N[C@@H](Cc1ccc(O)cc1)C(=O)O [YYYY] (H-YYYY-OH)
State [1, 4]: sol
Concentration [1]: 120000 µM
GELATION ([1]; peptide concentration 120 mM): 0
Morphology ([2]; line of the table gives 120 mM): aggregates

CC[C@H](C)[C@H](N)C(=O)N[C@H](C(=O)N[C@H](C(=O)N[C@@H](Cc1ccccc1)C(=O)O)[C@@H](C)CC)C(C)C [IVIF] (H-IVIF-OH)
State [1, 3]: gel
Concentration [1]: 30000 µM
GELATION ([1]; peptide concentration 30 mM): 1
Morphology ([2]; line of the table gives 30 mM): sphere

CC(C)C[C@H](N)C(=O)N[C@H](C(=O)N[C@@H](Cc1c[nH]c2ccccc12)C(=O)N[C@@H](Cc1ccccc1)C(=O)O)[C@@H](C)O [LTWF] (H-LTWF-OH)
State [1, 4]: sol
Concentration [1]: 120000 µM
GELATION ([1]; peptide concentration 120 mM): 0
Morphology ([2]; line of the table gives 120 mM): aggregates

N[C@@H](Cc1c[nH]c2ccccc12)C(=O)N1CCC[C@H]1C(=O)N[C@@H](Cc1ccc(O)cc1)C(=O)N[C@@H](Cc1ccc(O)cc1)C(=O)O [WPYY] (H-WPYY-OH)
State [1, 4]: precipitate
Concentration [1]: 120000 µM
GELATION ([1]; peptide concentration 120 mM): 0
hydrogel formation (in words) [1]: cannot
Morphology ([2]; line of the table gives 120 mM): sphere

CC(C)[C@H](N)C(=O)N[C@H](C(=O)N[C@H](C(=O)N[C@H](C(=O)O)C(C)C)C(C)C)C(C)C [VVVV] (H-VVVV-OH)
State [1, 5]: gel
Concentration [1]: 60000 µM
GELATION ([1]; peptide concentration 60 mM): 1
Morphology ([2]; line of the table gives 60 mM): sheet

CC(C)[C@H](NC(=O)[C@@H](NC(=O)[C@H](C)NC(=O)[C@@H](N)Cc1c[nH]c2ccccc12)C(C)C)C(=O)O [WAVV] (H-WAVV-OH)
State [1, 5]: gel
Concentration [1]: 60000 µM
GELATION ([1]; peptide concentration 60 mM): 1
Morphology ([2]; line of the table gives 60 mM): fibre

CSCC[C@H](NC(=O)[C@H](CCSC)NC(=O)[C@H](CCSC)NC(=O)[C@@H](N)CCSC)C(=O)O [MMMM] (H-MMMM-OH)
State [1, 4]: gel
Concentration [1]: 120000 µM
GELATION ([1]; peptide concentration 120 mM): 1
Morphology ([2]; line of the table gives 120 mM): hybrid(sphere+fibre)

CC[C@H](C)[C@H](N)C(=O)N[C@@H](Cc1c[nH]c2ccccc12)C(=O)N[C@H](C(=O)N[C@H](C(=O)O)[C@@H](C)CC)[C@@H](C)CC [IWII] (H-IWII-OH)
State [1, 4]: suspension
Concentration [1]: 120000 µM
EXP [1]: 0
GELATION ([1]; peptide concentration 120 mM): 0
Morphology ([2]; line of the table gives 120 mM): aggregates

CC(C)C[C@H](N)C(=O)N[C@H](C(=O)N[C@@H](Cc1ccccc1)C(=O)NCC(=O)O)C(C)C [LVFG] (H-LVFG-OH)
State [1, 5]: gel
Concentration [1]: 60000 µM
GELATION ([1]; peptide concentration 60 mM): 1
Morphology ([2]; line of the table gives 60 mM): aggregates

N[C@@H](Cc1ccccc1)C(=O)NCC(=O)N[C@@H](Cc1c[nH]c2ccccc12)C(=O)N[C@@H](Cc1c[nH]c2ccccc12)C(=O)O [FGWW] (H-FGWW-OH)
State [1, 4]: precipitate
Concentration [1]: 120000 µM
GELATION ([1]; peptide concentration 120 mM): 0
Morphology ([2]; line of the table gives 120 mM): sphere
morphology by TEM (in words) [2]: aggregates with different sizes

CC[C@H](C)[C@H](NC(=O)[C@H](Cc1ccccc1)NC(=O)[C@@H](NC(=O)[C@@H](N)Cc1c[nH]c2ccccc12)C(C)C)C(=O)O [WVFI] (H-WVFI-OH)
State [1, 4]: suspension
Concentration [1]: 120000 µM
GELATION ([1]; peptide concentration 120 mM): 0
Morphology ([2]; line of the table gives 120 mM): aggregates

CC(C)C[C@H](N)C(=O)N[C@@H](Cc1c[nH]c2ccccc12)C(=O)N[C@@H](Cc1c[nH]c2ccccc12)C(=O)N[C@@H](Cc1ccccc1)C(=O)O [LWWF] (H-LWWF-OH)
State [1, 3]: gel
Concentration [1]: 30000 µM
GELATION ([1]; peptide concentration 30 mM): 1
Morphology ([2]; line of the table gives 30 mM): aggregates

CC(C)C[C@H](N)C(=O)NCC(=O)N[C@H](C(=O)N[C@@H](Cc1ccccc1)C(=O)O)C(C)C [LGVF] (H-LGVF-OH)
State [1, 4]: sol
Concentration [1]: 120000 µM
GELATION ([1]; peptide concentration 120 mM): 0
Morphology ([2]; line of the table gives 120 mM): fibre

CC(C)C[C@H](N)C(=O)N[C@H](C(=O)N[C@@H](Cc1ccccc1)C(=O)N[C@@H](Cc1ccccc1)C(=O)O)C(C)C [LVFF]
State [1, 3]: gel
Concentration [1]: 30000 µM
GELATION ([1]; peptide concentration 30 mM): 1
Morphology ([2]; line of the table gives 30 mM): sphere
